Experiment [1] has as its target T1, human sphingosine-1-phosphate receptor 1 (S1P1) (Homo sapiens, UniProt P21453). The experiment is described as follows: β-Arrestin2 recruitment assay (PathHunter), S1P1 CHO-K1 cells. The experiment is classed as cell-based. The essentials:
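CHO-K1 cells co-expressing EA-β-arrestin2 and ProLink-tagged human S1P1 plated overnight, then stimulated 60 min at 37 °C. Enzyme-fragment complementation (β-galactosidase) detected after 1 h at room temperature by luminescence; values normalized to fingolimod.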
In general terms: Activated receptors often draw arrestin, which recruitment assays turn into a signal.
Target sequence in this assay (P21453 whole entry, the tested form may be a part): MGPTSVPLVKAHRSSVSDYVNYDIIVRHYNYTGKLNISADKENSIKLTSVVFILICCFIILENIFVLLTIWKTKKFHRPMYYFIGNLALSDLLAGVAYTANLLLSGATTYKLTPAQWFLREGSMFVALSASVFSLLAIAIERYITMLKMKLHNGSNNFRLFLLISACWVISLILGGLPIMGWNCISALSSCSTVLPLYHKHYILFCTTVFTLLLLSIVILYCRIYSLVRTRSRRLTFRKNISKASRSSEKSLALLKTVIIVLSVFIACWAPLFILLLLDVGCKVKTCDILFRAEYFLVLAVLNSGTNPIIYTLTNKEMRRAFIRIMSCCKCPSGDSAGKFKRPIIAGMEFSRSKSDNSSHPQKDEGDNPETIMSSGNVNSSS
Target sequence in this assay (P32121 whole entry partner, the tested form may be a part): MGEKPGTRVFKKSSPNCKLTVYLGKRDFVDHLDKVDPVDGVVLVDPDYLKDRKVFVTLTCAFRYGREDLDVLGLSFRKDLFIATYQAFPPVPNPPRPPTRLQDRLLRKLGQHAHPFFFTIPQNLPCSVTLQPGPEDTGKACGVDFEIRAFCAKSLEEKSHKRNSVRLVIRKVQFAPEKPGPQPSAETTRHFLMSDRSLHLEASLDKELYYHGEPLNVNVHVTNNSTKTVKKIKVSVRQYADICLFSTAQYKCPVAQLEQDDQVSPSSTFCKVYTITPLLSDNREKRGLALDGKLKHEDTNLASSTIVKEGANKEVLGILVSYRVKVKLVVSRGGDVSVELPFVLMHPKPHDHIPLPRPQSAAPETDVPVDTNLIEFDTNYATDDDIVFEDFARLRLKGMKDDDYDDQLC

For experiment [2], the target named is T1, human sphingosine-1-phosphate receptor 1 (S1P1). Description: Inhibition of cAMP production (HTRF cAMP HiRange), S1P1 CHO-K1 cells. In kind it is cell-based. The essentials: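 CHO-K1 cells co-expressing human S1P1 (C-terminal ProLink tag) and EA-β-arrestin2, plated overnight; after 30 min compound incubation at 37 °C, intracellular cAMP measured by HTRF TR-FRET following 1 h at room temperature. Values normalized to fingolimod.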
Target sequence in this assay (P21453 whole entry, the tested form may be a part): as the sequence (P21453 whole entry, the tested form may be a part) above
In general terms: cAMP levels reflect the balance of adenylyl cyclase and phosphodiesterase activity.

Where [3] appears, read: CHO-K1, efficacy normalized to maximum efficacy of fingolimod, read-out: hS1P1 B-arrestin2 SPAN.
Where [4] appears, read: β-arrestin2 recruitment, S1P1, read-out: hS1P1 B-arrestin2 pEC50 (converted).
[5] abbreviates: CHO-K1, efficacy normalized to maximum efficacy of fingolimod, read-out: hS1P1 CAMP SPAN.
Setting [6] is: inhibition of cAMP production, S1P1, read-out: hS1P1 CAMP pEC50 (converted).

Some results are limits rather than exact numbers.

For `CCC1(CC)CC(=O)c2cc(-c3nc(-c4cccnc4C(F)(F)F)no3)ccc2O1` [Compound 562, 2,2-diethyl-6-(3-(2-(trifluoromethyl)pyridin-3-yl)-1,2,4-oxadiazol-5-yl)chroman-4-one], the Emax in experiment [1] (setting [3]) and in experiment [2] (setting [5]) was more than 75% each time. For the same molecule, the results for the EC50 in experiment [1] (setting [4]) and in experiment [2] (setting [6]) were less than 10 µM and less than 0.316 µM, respectively.

As for `CCC1(CC)CC(=O)c2cc(-c3nc(-c4cncc(C)c4)no3)ccc2O1` [Compound 563, 2,2-diethyl-6-(3-(5-methylpyridin-3-yl)-1,2,4-oxadiazol-5-yl)chroman-4-one], the Emax was less than 75% in experiment [1] (setting [3]) and more than 75% in experiment [2] (setting [5]). The EC50 is less than 10 µM in experiment [1] (setting [4]) and less than 0.316 µM in experiment [2] (setting [6]).

In the case of `CCC1(CC)CC(=O)c2cc(-c3nc(-c4cccnc4C)no3)ccc2O1` [Compound 564, 2,2-diethyl-6-(3-(2-methylpyridin-3-yl)-1,2,4-oxadiazol-5-yl)chroman-4-one], the Emax in experiment [1] (setting [3]) and in experiment [2] (setting [5]) was more than 75% each time. Further, the EC50 was less than 10 µM in experiment [1] (setting [4]) and less than 0.316 µM in experiment [2] (setting [6]).

For `COc1ccccc1-c1cnc(-c2ccc3c(c2)nnn3C(C)C)nc1` [Compound 565, 1-isopropyl-5-(5-(2-methoxyphenyl)pyrimidin-2-yl)-1H-benzo[d][1,2,3]triazole], the Emax in experiment [1] (setting [3]) and in experiment [2] (setting [5]) was more than 75% each time. Besides, the results for the EC50 in experiment [1] (setting [4]) and in experiment [2] (setting [6]) were less than 10 µM and less than 0.316 µM, respectively.

In the case of `COc1ccccc1-c1c[nH]c(-c2ccc3c(c2)nnn3C(C)C)c1` [Compound 566, 5-[4-(2-methoxyphenyl)-1H-pyrrol-2-yl]-1-(propan-2-yl)-1H-1,2,3-benzotriazole], the Emax in experiment [1] (setting [3]) and in experiment [2] (setting [5]) was less than 75% each time. Further, the EC50 in experiment [1] (setting [4]) is more than 10 µM; in experiment [2] (setting [6]), more than 0.316 µM.

Turning to `Cn1ccnc1-c1noc(-c2ccc3c(c2)nnn3CC(C)(C)O)n1` [Compound 567, 2-methyl-1-(5-[3-(1-methyl-1H-imidazol-2-yl)-1,2,4-oxadiazol-5-yl]-1H-1,2,3-benzotriazol-1-yl}propan-2-ol], the results for the Emax in experiment [1] (setting [3]) and in experiment [2] (setting [5]) were less than 75% and more than 75%, respectively. Moreover, the figures for the EC50 in experiment [1] (setting [4]) and in experiment [2] (setting [6]) were more than 10 µM and more than 0.316 µM, respectively.

`CCC1(CC)CC(=O)c2cc(-c3nc(-c4ccc(NS(C)(=O)=O)cc4OC)no3)ccc2O1` [Compound 568, N-{4-[5-(2,2-diethyl-4-oxo-3,4-dihydro-2H-1-benzopyran-6-yl)-1,2,4-oxadiazol-3-yl]-3-methoxyphenyl}methane-sulfonamide]: the Emax in experiment [1] (setting [3]) and in experiment [2] (setting [5]) was more than 75% in each case. Also, the EC50 was less than 10 µM in experiment [1] (setting [4]) and less than 0.316 µM in experiment [2] (setting [6]).

For `Cc1nc2cc(-c3nc(-c4ccc5c(c4)nnn5C(C)C)no3)ccc2[nH]1` [Compound 571, 5-[5-(2-methyl-1H-1,3-benzodiazol-5-yl)-1,2,4-oxadiazol-3-yl]-1-(propan-2-yl)-1H-1,2,3-benzotriazole], the Emax in experiment [1] (setting [3]) was less than 75%; in experiment [2] (setting [5]) it was more than 75%. The EC50 in experiment [1] (setting [4]) was less than 10 µM; in experiment [2] (setting [6]) it was less than 0.316 µM.

On to `CC(C)Nc1ccc(-c2nnc(-c3ccc4c(c3)ncn4C)o2)cc1C#N` [Compound 572, 5-[5-(1-methyl-1H-1,3-benzodiazol-5-yl)-1,3,4-oxadiazol-2-yl]-2-[(propan-2-yl)amino]benzonitrile], for which the Emax in experiment [1] (setting [3]) is more than 75%; in experiment [2] (setting [5]) it was less than 75%. The EC50 in experiment [1] (setting [4]) was more than 10 µM; in experiment [2] (setting [6]), more than 0.316 µM.

As for `Cn1cnc2cc(-c3nnc(-c4ccc(NCC(F)F)c(C#N)c4)o3)ccc21` [Compound 573, 2-[(2,2-difluoro-ethyl)amino]-5-[5-(1-methyl-1H-1,3-benzodiazol-5-yl)-1,3,4-oxadiazol-2-yl]benzonitrile], the Emax in experiment [1] (setting [3]) and in experiment [2] (setting [5]) was less than 75% throughout. For the same molecule, the EC50 was more than 10 µM in experiment [1] (setting [4]) and more than 0.316 µM in experiment [2] (setting [6]).

In the case of `CC(C)Nc1ccc(-c2nnc(-c3ccc4c(c3)ncn4CCO)o2)cc1C#N` [Compound 574, 5-{5-[1-(2-hydroxy-ethyl)-1H-1,3-benzodiazol-5-yl]-1,3,4-oxadiazol-2-yl}-2-[(propan-2-yl)amino]benzonitrile], the Emax in experiment [1] (setting [3]) and in experiment [2] (setting [5]) was more than 75% in each case. In addition, the EC50 in experiment [1] (setting [4]) is more than 10 µM; in experiment [2] (setting [6]), more than 0.316 µM.

As for `N#Cc1cc(-c2nnc(-c3ccc4c(c3)ncn4CCO)o2)ccc1NCC(F)F` [Compound 578, 2-[(2,2-difluoro-ethyl)amino]-5-{5-[1-(2-hydroxyethyl)-1H-1,3-benzodiazol-5-yl]-1,3,4-oxadiazol-2-yl}benzonitrile], the Emax in experiment [1] (setting [3]) is less than 75%; in experiment [2] (setting [5]), more than 75%. Besides, the values for the EC50 in experiment [1] (setting [4]) and in experiment [2] (setting [6]) were more than 10 µM and more than 0.316 µM, respectively.

As for `CC(C)Nc1ccc(-c2nnc(-c3ccc4ncn(C)c4c3)o2)cc1C#N` [Compound 579, 5-[5-(1-methyl-1H-1,3-benzodiazol-6-yl)-1,3,4-oxadiazol-2-yl]-2-[(propan-2-yl)amino]benzonitrile], the Emax in experiment [1] (setting [3]) and in experiment [2] (setting [5]) was more than 75% throughout. Moreover, the EC50 in experiment [1] (setting [4]) is less than 10 µM; in experiment [2] (setting [6]), less than 0.316 µM.

With `Cn1cnc2ccc(-c3nnc(-c4ccc(NCC(F)F)c(C#N)c4)o3)cc21` [Compound 580, 2-[(2,2-difluoro-ethyl)amino]-5-[5-(1-methyl-1H-1,3-benzodiazol-6-yl)-1,3,4-oxadiazol-2-yl]benzonitrile], the Emax in experiment [1] (setting [3]) and in experiment [2] (setting [5]) was more than 75% in each case. Moreover, the figures for the EC50 in experiment [1] (setting [4]) and in experiment [2] (setting [6]) were less than 10 µM and less than 0.316 µM, respectively.

As to `COc1cc(NC(C)=O)ccc1-c1nc(-c2ccncc2)no1` [Compound 582, N-{3-methoxy-4-[3-(pyridin-4-yl)-1,2,4-oxadiazol-5-yl]phenyl}acetamide], the values for the Emax in experiment [1] (setting [3]) and in experiment [2] (setting [5]) were less than 75% and more than 75%, respectively. In addition, the figures for the EC50 in experiment [1] (setting [4]) and in experiment [2] (setting [6]) were more than 10 µM and more than 0.316 µM, respectively.

As to `CCOP(=O)(Cc1ccc(-c2noc(-c3ccc4c(c3)nnn4C(C)C)n2)cc1)OCC` [Compound 583, diethyl[(4-{5-[1-(propan-2-yl)-1H-1,2,3-benzotriazol-5-yl]-1,2,4-oxadiazol-3-yl}phenyl)methyl]phosphonate], the EC50 in experiment [1] is more than 10 µM; in experiment [2], more than 0.316 µM. The Emax in experiment [1] (CHO-K1, read-out: hS1P1 B-arrestin2 SPAN) is less than 75%; in experiment [2] (CHO-K1, read-out: hS1P1 CAMP SPAN), less than 75%.

Regarding `CC(C)Nc1ccc(-c2nnc(-c3cccc4[nH]cnc34)o2)cc1C#N` [Compound 585, 5-[5-(1H-1,3-benzo-diazol-4-yl)-1,3,4-oxadiazol-2-yl]-2-[(propan-2-yl)amino]benzonitrile], the Emax in experiment [1] (setting [3]) and in experiment [2] (setting [5]) was more than 75% throughout. Besides, the values for the EC50 in experiment [1] (setting [4]) and in experiment [2] (setting [6]) were less than 10 µM and less than 0.316 µM, respectively.

Turning to `N#Cc1cc(-c2nnc(-c3cccc4[nH]cnc34)o2)ccc1NCC(F)F` [Compound 586, 5-[5-(1H-1,3-benzodiazol-4-yl)-1,3,4-oxadiazol-2-yl]-2-[(2,2-difluoro-ethyl)amino]benzonitrile], the Emax in experiment [1] (setting [3]) and in experiment [2] (setting [5]) was more than 75% in each case. Further, the values for the EC50 in experiment [1] (setting [4]) and in experiment [2] (setting [6]) were less than 10 µM and less than 0.316 µM, respectively.

On to `CCC1CC(=O)c2ccc(-c3nc(-c4cccnc4)no3)cc2O1` (stereo not drawn) [Compound 588, 2-ethyl-7-[3-(pyridin-3-yl)-1,2,4-oxadiazol-5-yl]-3,4-dihydro-2H-1-benzopyran-4-one], for which the Emax in experiment [1] (setting [3]) and in experiment [2] (setting [5]) was less than 75% each time. Besides, the EC50 was more than 10 µM in experiment [1] (setting [4]) and more than 0.316 µM in experiment [2] (setting [6]).

On to `CCC1CC(=O)c2ccc(-c3nc(-c4ccncc4)no3)cc2O1` (stereo not drawn) [Compound 589, 2-ethyl-7-[3-(pyridin-4-yl)-1,2,4-oxadiazol-5-yl]-3,4-dihydro-2H-1-benzopyran-4-one], for which the Emax is more than 75% in experiment [1] (setting [3]) and less than 75% in experiment [2] (setting [5]). Further, the EC50 is more than 10 µM in experiment [1] (setting [4]) and more than 0.316 µM in experiment [2] (setting [6]).

Regarding `CC(C)(O)Cn1nnc2cc(-c3nc(-c4ccc5nonc5c4)no3)ccc21` [Compound 590, 1-{5-[3-(2,1,3-benzoxa-diazol-5-yl)-1,2,4-oxadiazol-5-yl]-1H-1,2,3-benzotriazol-1-yl}-2-methylpropan-2-ol], the Emax in experiment [1] (setting [3]) and in experiment [2] (setting [5]) was less than 75% throughout. In addition, the figures for the EC50 in experiment [1] (setting [4]) and in experiment [2] (setting [6]) were more than 10 µM and more than 0.316 µM, respectively.

Turning to `CCC1(CC)CC(=O)c2cc(-c3nc(-c4cccs4)no3)ccc2N1` [Compound 591, 2,2-diethyl-6-(3-(thiophen-2-yl)-1,2,4-oxadiazol-5-yl)-2,3-dihydroquinolin-4(1H)-one], the Emax was more than 75% in experiment [1] (setting [3]) and less than 75% in experiment [2] (setting [5]). In addition, the EC50 in experiment [1] (setting [4]) was less than 10 µM; in experiment [2] (setting [6]), less than 0.316 µM.

Turning to `CCC1(CC)CC(=O)c2cc(-c3nc(-c4ccnc(C(=O)NC)c4)no3)ccc2O1` [Compound 592, 4-(5-(2,2-diethyl-4-oxochroman-6-yl)-1,2,4-oxadiazol-3-yl)-N-methylpicolinamide], the Emax in experiment [1] (setting [3]) was more than 75%; in experiment [2] (setting [5]), less than 75%. The EC50 in experiment [1] (setting [4]) was more than 10 µM; in experiment [2] (setting [6]) it was more than 0.316 µM.

Consider `CCC1(CC)CC(=O)c2cc(-c3ncc(-c4ccccc4OC)cn3)ccc2O1` [Compound 594, 2,2-diethyl-6-(5-(2-methoxyphenyl)pyrimidin-2-yl)chroman-4-one], for which the Emax in experiment [1] (setting [3]) and in experiment [2] (setting [5]) was more than 75% throughout. Further, the EC50 in experiment [1] (setting [4]) is less than 10 µM; in experiment [2] (setting [6]) it was less than 0.316 µM.
